From publication PMC7190983, “A Putative Efflux Transporter of the ABC Family, YbhFSR, in Escherichia coli Functions in Tetracycline Efflux and Na^+(Li^+)/H^+ Transport” (Frontiers in Microbiology, 2020)

Key:
YbhFSR [1] = biological target: T1, YbhFSR (Escherichia coli, UniProt P0AFP9+P0AFQ2); assay: whole-cell ethidium fluorescence efflux, knockout and complemented strains; assay type: cell-based; set-up: gene ybhS; native transporter in whole cells; ybhF knockout, acrB ybhF double knockout and ybhF overexpression strains compared; YbhG and TolC probably also take part; settings: 2.5 μM EB preloaded, 25 mM glucose, 50 mM KPi pH 7.0, 5 mM MgSO4, 37 °C
YbhFSR [2] = biological target: T1, YbhFSR; set-up: gene ybhS; settings: 100 μg/ml tetracycline, Mg2+ buffer pH 8.0

Structure (SMILES)	whole-cell ethidium fluorescence efflux, knockout and complemented strains (YbhFSR [1])	whole-cell tetracycline fluorescence efflux and accumulation, knockout strains (YbhFSR [2])
CC[n+]1c(-c2ccccc2)c2cc(N)ccc2c2ccc(N)cc21 [ethidium bromide]	the ybhF gene knockout reduced the ethidium efflux capacity	
CN(C)[C@@H]1C(=O)C(C(N)=O)=C(O)[C@@]2(O)C(=O)C3=C(O)c4c(O)cccc4[C@@](C)(O)[C@H]3C[C@@H]12 [tetracycline]		knockout of ybhF decreased the efflux of tetracycline and increased the intracellular accumulation
